Columns and labels:
[1] = tested on: wild oat; assay: Test E wild oat; format: in vivo, Avena fatua; settings: Preemergence
[2] = tested on: bedstraw; assay: Test B pre/postemergence bedstraw; format: in vivo, Galium aparine
Method in brief: (§1)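 Response is a visual 0-to-10 score relative to untreated plants, where 0 means no effect and 10 means complete control, taken twelve to sixteen days after application. Treatments went onto soil at planting and onto foliage of 1- to 4-leaf plants, using a surfactant-containing non-phytotoxic solvent.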

[3] = tested on: wheat; assay: Test B pre/postemergence wheat; format: in vivo, Triticum aestivum
Method in brief: as §1

[4] = tested on: winter barley; assay: Test E winter barley; format: in vivo, Hordeum vulgare; settings: Preemergence
[5] = tested on: green foxtail; assay: Test E green foxtail; format: in vivo, Setaria viridis; settings: Preemergence
[6] = tested on: velvetleaf; assay: Test B pre/postemergence velvetleaf; format: in vivo, Abutilon theophrasti
Method in brief: as §1

[7] = tested on: winter wheat; assay: Test E winter wheat; format: in vivo, Triticum aestivum; settings: Postemergence
Protocol: […] All plant species were grown using normal greenhouse practices. Crop and weed species include annual bluegrass (Poa annua), blackgrass (Alopecurus myosuroides), black nightshade (Solanum nigra), chickweed (Stellaria media), common poppy (Papaver rhoeas), deadnettle (Lamium amplexicaule), downy brome (Bromus tectorum), field violet (Viola arvensis), galium (Galium aparine), green foxtail (Setaria viridis), Italian ryegrass (Lolium multiflorum), jointed goatgrass (Aegilops cylindrica), kochia (Kochia scoparia), lambsquarters (Chenopodium album), littleseed canarygrass (Phalaris minor), rape (Brassica napus), redroot pigweed (Amaranthus retroflexus), Russian thistle (Salsola kali), scentless chamomile (Matricaria inodora), spring barley (Hordeum vulgare), sugar beet (Beta vulgaris), sunflower (Helianthus annuus), ivyleaf speedwell (Veronica hederaefolia), spring wheat (Triticum aestivum), winter wheat (Triticum aestivum), wild buckwheat (Polygonum convolvulus), wild mustard (Sinapis arvensis), wild oat (Avena fatua), windgrass (Apera spica-venti) and winter barley (Hordeum vulgare).
Treated plants and untreated controls were maintained in a greenhouse for approximately 21 to 28 days, after which all treated plants were compared to untreated controls and visually evaluated. […] A dash response (-) means no test result.

[8] = tested on: blackgrass; assay: Test E blackgrass; format: in vivo, Alopecurus myosuroides; settings: Preemergence
[9] = tested on: blackgrass; assay: Test B pre/postemergence blackgrass; format: in vivo, Alopecurus myosuroides
Method in brief: as §1

[10] = tested on: Italian ryegrass; assay: Test E Italian ryegrass; format: in vivo, Lolium multiflorum; settings: Preemergence
[11] = tested on: winter wheat; assay: Test E winter wheat; format: in vivo, Triticum aestivum; settings: Preemergence
[12] = Rate 500 g/ha, 0 to 100 scale (0 no effect, 100 complete control)
[13] = Rate 1000 g/ha, 0 to 100 scale, 0 no effect, 100 complete control
[14] = Postemergence, Rate 31 g/ha, visual rating, scale 0 to 10 (0 no effect, 10 complete control)
[15] = Preemergence, Rate 31 g/ha, visual rating, scale 0 to 10 (0 no effect, 10 complete control)
[16] = Preemergence, Rate 62 g/ha, scale of 0 to 10 where 0 is no effect and 10 is complete control
[17] = Rate 16 g/ha, Postemergence, scale 0 to 10, 0 no effect, 10 complete control
[18] = Rate 16 g/ha, Preemergence, scale 0 to 10, 0 no effect, 10 complete control
[19] = Rate 62 g/ha, Postemergence, scale 0 to 10 (0 no effect, 10 complete control)
[20] = Rate 125 g/ha, Postemergence, scale of 0 to 10 where 0 is no effect and 10 is complete control
[21] = Rate 125 g/ha, Preemergence, scale of 0 to 10 where 0 is no effect and 10 is complete control
[22] = Rate 500 g/ha, 0 to 100 scale, 0 is no effect, 100 is complete control
[23] = Rate 125 g/ha, 0 to 100 scale (0 no effect, 100 complete control)
[24] = Postemergence, Rate 125 g/ha, scale 0 to 10, 0 is no effect, 10 is complete control
[25] = Postemergence, Rate 250 g/ha, scale 0 to 10, 0 is no effect, 10 is complete control
[26] = Preemergence, Rate 62 g/ha, scale 0 to 10 (0 no effect, 10 complete control)
[27] = Preemergence, Rate 250 g/ha, scale of 0 to 10 where 0 is no effect and 10 is complete control
[28] = Preemergence, Rate 500 g/ha, scale of 0 to 10 where 0 is no effect and 10 is complete control
[29] = Rate 62 g/ha, Postemergence, scale of 0 to 10 where 0 is no effect and 10 is complete control
[30] = Rate 500 g/ha, Postemergence, scale 0 to 10, 0 no effect, 10 complete control
[31] = Postemergence, Rate 62 g/ha, scale 0 to 10, 0 is no effect, 10 is complete control
[32] = Postemergence, Rate 250 g/ha, scale 0 to 10, 0 no effect, 10 complete control
[33] = Preemergence, Rate 125 g/ha, scale 0 to 10 (0 no effect, 10 complete control)
[34] = Preemergence, Rate 500 g/ha, scale 0 (no effect) to 10 (complete control)
[35] = Rate 125 g/ha, Postemergence, scale 0 to 10, 0 no effect, 10 complete control

C=CCCCn1c(=O)on(C(=O)N(c2ccc(F)cc2)C(C)C)c1=O [Compound 291]
Wild oat plant response rating (0 to 100 scale) ([1]; Rate 250 g/ha): 20 | Plant response rating, Wild oat [1, 12]: 50 | Plant response rating, Wild oat [1, 13]: 60 | Bedstraw plant response rating [2, 14]: 0 | Bedstraw plant response rating [2, 15]: 0 | Bedstraw plant response rating [2, 16]: 0 | Bedstraw plant response rating [2, 17]: 0 | Bedstraw plant response rating [2, 18]: 0 | Bedstraw plant response rating [2, 19]: 0 | Bedstraw plant response rating [2, 20]: 3 | Bedstraw plant response rating [2, 21]: 0 | Wheat plant response rating [3, 14]: 0 | Wheat plant response rating [3, 15]: 0 | Wheat plant response rating [3, 16]: 0 | Wheat plant response rating [3, 17]: 0 | Wheat plant response rating [3, 18]: 0 | Wheat plant response rating [3, 19]: 0 | Wheat plant response rating [3, 20]: 0 | Wheat plant response rating [3, 21]: 0 | Barley (winter) plant response rating (0 to 100 scale) ([4]; Rate 250 g/ha): 10 | Plant response rating, Barley (winter) [4, 12]: 30 | Plant response rating, Barley (winter) [4, 13]: 20 | Green foxtail plant response rating (0 to 100 scale) ([5]; Rate 250 g/ha): 55 | Plant response rating, Green foxtail [5, 12]: 85 | Plant response rating, Green foxtail [5, 13]: 100 | Velvetleaf plant response rating [6, 14]: 0 | Velvetleaf plant response rating [6, 15]: 0 | Velvetleaf plant response rating [6, 16]: 0 | Velvetleaf plant response rating [6, 17]: 0 | Velvetleaf plant response rating [6, 18]: 0 | Velvetleaf plant response rating [6, 19]: 0 | Velvetleaf plant response rating [6, 20]: 0 | Velvetleaf plant response rating [6, 21]: 0 | Plant response rating, Wheat (winter) ([7]; Rate 1000 g/ha, 0 to 100 scale where 0 is no effect and 100 is complete control): 55 | Wheat (winter) plant response rating ([7]; Rate 250 g/ha, 0 to 100 scale where 0 is no effect and 100 is complete control): 30 | Plant response rating, Wheat (winter) [7, 22]: 40 | Blackgrass plant response rating (0 to 100 scale) ([8]; Rate 250 g/ha): 30 | Plant response rating, Blackgrass [8, 12]: 40 | Plant response rating, Blackgrass [8, 13]: 50 | Blackgrass plant response rating [9, 14]: 0 | Blackgrass plant response rating [9, 15]: 0 | Blackgrass plant response rating [9, 16]: 0 | Blackgrass plant response rating [9, 17]: 0 | Blackgrass plant response rating [9, 18]: 0 | Blackgrass plant response rating [9, 19]: 1 | Blackgrass plant response rating [9, 20]: 2 | Blackgrass plant response rating [9, 21]: 8 | I. Ryegrass plant response rating (0 to 100 scale) ([10]; Rate 250 g/ha): 70 | Plant response rating, I. Ryegrass [10, 12]: 100 | Plant response rating, I. Ryegrass [10, 13]: 90 | Wheat (winter) plant response rating (0 to 100 scale) ([11]; Rate 250 g/ha): 35 | Plant response rating, Wheat (winter) [11, 12]: 50 | Plant response rating, Wheat (winter) [11, 13]: 60

CC1CC1n1c(=O)on(C(=O)N(c2ccc(F)cc2)C(C)C)c1=O (stereo not drawn) [Compound 371]
Plant response rating, Wild oat [1, 23]: 70 | Plant response rating, Wild oat ([1]; Rate 250 g/ha, 0 to 100 scale): 85 | Plant response rating, Wild oat [1, 12]: 90 | Plant response rating, Wheat [3, 24]: 0 | Plant response rating, Wheat [3, 25]: 0 | Plant response rating, Wheat [3, 26]: 0 | Wheat plant response rating (0 to 10 scale) ([3]; Preemergence, Rate 125 g/ha): 0 | Wheat plant response rating [3, 27]: 2 | Wheat plant response rating [3, 28]: 4 | Wheat plant response rating [3, 29]: 0 | Plant response rating, Barley (winter) [4, 23]: 40 | Plant response rating, Barley (winter) ([4]; Rate 250 g/ha, 0 to 100 scale, 0 no effect, 100 complete control): 60 | Plant response rating, Barley (winter) [4, 12]: 70 | Plant response rating, Green foxtail [5, 23]: 35 | Plant response rating, Green foxtail ([5]; Rate 250 g/ha, 0 to 100 scale): 60 | Plant response rating, Green foxtail [5, 12]: 85 | Plant response rating, Velvetleaf [6, 24]: 0 | Plant response rating, Velvetleaf [6, 25]: 2 | Plant response rating, Velvetleaf [6, 26]: 0 | Velvetleaf plant response rating (0 to 10 scale) ([6]; Preemergence, Rate 125 g/ha): 4 | Velvetleaf plant response rating [6, 27]: 5 | Velvetleaf plant response rating [6, 28]: 6 | Velvetleaf plant response rating [6, 29]: 0 | Plant response rating, Velvetleaf [6, 30]: 3 | Plant response rating, Wheat (winter) ([7]; Rate 125 g/ha, 0 to 100 scale, 0 is no effect, 100 is complete control): 70 | Plant response rating, Wheat (winter) ([7]; Rate 250 g/ha, 0 to 100 scale, 0 is no effect, 100 is complete control): 65 | Plant response rating, Wheat (winter) [7, 22]: 80 | Plant response rating, Blackgrass [8, 23]: 85 | Plant response rating, Blackgrass ([8]; Rate 250 g/ha, 0 to 100 scale): 100 | Plant response rating, Blackgrass [8, 12]: 100 | Plant response rating, Blackgrass [9, 24]: 2 | Plant response rating, Blackgrass [9, 25]: 6 | Plant response rating, Blackgrass [9, 26]: 5 | Blackgrass plant response rating (0 to 10 scale) ([9]; Preemergence, Rate 125 g/ha): 9 | Blackgrass plant response rating [9, 27]: 10 | Blackgrass plant response rating [9, 28]: 10 | Blackgrass plant response rating [9, 29]: 2 | Plant response rating, Blackgrass [9, 30]: 8 | Plant response rating, I. Ryegrass [10, 23]: 60 | Plant response rating, I. Ryegrass ([10]; Rate 250 g/ha, 0 to 100 scale): 70 | Plant response rating, I. Ryegrass [10, 12]: 90 | Plant response rating, Wheat (winter) [11, 23]: 60 | Plant response rating, Wheat (winter) ([11]; Rate 250 g/ha, 0 to 100 scale): 60 | Plant response rating, Wheat (winter) [11, 12]: 65

COc1cccc(C)c1-n1c(=O)on(C(=O)N(c2ccccc2)C(C)C)c1=O [Compound 73]
Bedstraw plant response rating [2, 31]: 0 | Bedstraw plant response rating [2, 32]: 7 | Bedstraw plant response rating [2, 26]: 0 | Plant response rating, Bedstraw [2, 33]: 0 | Plant response rating, Bedstraw [2, 27]: 0 | Bedstraw plant response rating [2, 34]: 0 | Bedstraw plant response rating [2, 35]: 0 | Bedstraw plant response rating [2, 30]: 7 | Wheat plant response rating [3, 31]: 0 | Wheat plant response rating [3, 32]: 0 | Wheat plant response rating [3, 26]: 0 | Plant response rating, Wheat [3, 33]: 0 | Plant response rating, Wheat [3, 27]: 0 | Wheat plant response rating [3, 34]: 0 | Wheat plant response rating [3, 35]: 0 | Wheat plant response rating [3, 30]: 2 | Velvetleaf plant response rating [6, 31]: 0 | Velvetleaf plant response rating [6, 32]: 4 | Velvetleaf plant response rating [6, 26]: 0 | Plant response rating, Velvetleaf [6, 33]: 0 | Plant response rating, Velvetleaf [6, 27]: 0 | Velvetleaf plant response rating [6, 34]: 0 | Velvetleaf plant response rating [6, 35]: 3 | Velvetleaf plant response rating [6, 30]: 5 | Blackgrass plant response rating [9, 31]: 0 | Blackgrass plant response rating [9, 32]: 0 | Blackgrass plant response rating [9, 26]: 0 | Plant response rating, Blackgrass [9, 33]: 0 | Plant response rating, Blackgrass [9, 27]: 0 | Blackgrass plant response rating [9, 34]: 0 | Blackgrass plant response rating [9, 35]: 0 | Blackgrass plant response rating [9, 30]: 2

Source: patent US6737383B1, “Herbicidal oxadiazolidines” (priority 1999, dated 2004)
